Consider 30 compounds from ChEMBL document CHEMBL5329153, “Is structural hybridization invoking new dimensions for antimalarial drug discovery research?” (RSC Med Chem, 2023).

The subject of test [1] is Plasmodium falciparum. Description: Antimalarial activity against Plasmodium falciparum 3D7 assessed as parasitic growth inhibition measured after 42 hrs by [3H]hypoxanthine incorporation assay. Type of test: functional, organism-based.
The test system of test [2] is Plasmodium falciparum. Description: Antimalarial activity against Chloroquine resistant Plasmodium falciparum Dd2 assessed as parasitic growth inhibition measured after 3 days by ELISA assay. It is filed as functional, organism-based. Conditions: Dd2, 72 h.
Test [3] deals with Plasmodium falciparum. As to the kind of experiment: Antimalarial activity against Chloroquine sensitive Plasmodium falciparum 3D7 assessed as parasitic growth inhibition measured after 3 days by ELISA assay. It is filed as functional, organism-based. Conditions: 3D7, 72 h. On the technique in general: In an ELISA, binding on a coated surface is turned into a signal by an enzyme label.

Test [4] has as its system Plasmodium falciparum. Description: Antimalarial activity against Chloroquine resistant Plasmodium falciparum assessed as parasitic growth inhibition by microscopic anlaysis. Type of test: functional, organism-based.
Test [5] concerns Plasmodium falciparum. Description: Antimalarial activity against Plasmodium falciparum assessed as parasitic growth inhibition. Type of test: functional, organism-based.
Test [6] concerns Plasmodium falciparum. As to the kind of experiment: Antimalarial activity against Chloroquine sensitive Plasmodium falciparum assessed as parasitic growth inhibition. Type of test: functional, organism-based.
The test system of test [7] is Plasmodium falciparum. Description: Antimalarial activity against Chloroquine-pyrimethamine resistant Plasmodium falciparum W2 assessed as parasitic growth inhibition measured after 48 hrs. Type of test: functional, organism-based. The note with it: W2, 48 h.
In test [8] the test system is Plasmodium falciparum. As to the kind of experiment: Antimalarial activity against Chloroquine-pyrimethamine sensitive Plasmodium falciparum D6 assessed as parasitic growth inhibition measured after 48 hrs. Conditions: D6, 48 h. It is filed as functional, organism-based.
Test [9] has as its system Plasmodium falciparum. As to the kind of experiment: Antimalarial activity against Chloroquine resistant Plasmodium falciparum W2 assessed as parasitic growth inhibition measured after 48 hrs by fluorescence based assay. The note with it: W2, 48 h. Type of test: functional, organism-based.
Another test has as its system Hemozoin. Description: Inhibition of beta-hematin formation.
In test [10] the test system is Plasmodium falciparum. Description: Antimalarial activity against chloroquine sensitive Plasmodium falciparum 3D7 assessed as parasitic growth inhibition by SYBR Green I dye based assay. It is filed as functional, organism-based.
Test [11] deals with Plasmodium falciparum. Description: Antimalarial activity against Chloroquine sensitive Plasmodium falciparum RKL-2 assessed as parasitic growth inhibition measured after 36 to 40 hrs by Giemsa staining based assay. It is filed as functional, organism-based.
Test [12] concerns Plasmodium falciparum. Description: Antimalarial activity against Plasmodium falciparum 3D7 assessed as parasitic growth inhibition measured after 72 hrs by SYBR Green dye based assay. Type of test: functional, organism-based. Conditions: 3D7, 72 h.
The test system of test [13] is Plasmodium falciparum. As to the kind of experiment: Antimalarial activity against Plasmodium falciparum 3D7 assessed as parasitic growth inhibition. It is filed as functional, organism-based.
The subject of test [14] is Plasmodium falciparum. Description: Antimalarial activity against Plasmodium falciparum Dd2 assessed as parasitic growth inhibition. Type of test: functional, organism-based.
Test [15] concerns Plasmodium falciparum. As to the kind of experiment: Antimalarial activity against Plasmodium falciparum K1 assessed as parasitic growth inhibition. It is filed as functional, organism-based.

Molecules are shown by their SMILES. In brackets after ≈: the same amount, converted by molar mass.

By IC50 is commonly meant the point on the concentration scale where inhibition reaches its midpoint. For the compound `COc1ccc2cc3[n+](cc2c1OCc1cn(-c2ccc(S(=O)(=O)Nc4ccc(Cl)cc4)cc2)nn1)CCc1cc2c(cc1-3)OCO2.[Cl-]`, the IC50 with Plasmodium falciparum [1] was found to be 0.1 µg/mL. Regarding `COc1cc(NC(C)CCCNC(=O)CCCC(=O)NO)c2ncccc2c1` (centres undefined), the IC50 in the test with Plasmodium falciparum [2] was determined as 1900 nM; with Plasmodium falciparum [3], 400 nM.

`O=C(NNC(=S)Nc1c(F)cccc1F)c1cc(-c2ccccc2Br)nc2c(Cl)cc(C(F)(F)F)cc12`: in the test with Plasmodium falciparum [4], the half-inhibitory concentration (IC50) amounted to 0.36 µg/mL.

Take `O=C(NNC(=S)Nc1cc(Cl)cc(Cl)c1)c1cc(-c2ccc(F)cc2F)nc2cc(Cl)c(F)cc12`: the IC50 in the test with Plasmodium falciparum [4] is 0.17 µg/mL. Same read-out and setting: the value for `C=C[C@H]1CN2CC[C@H]1C[C@H]2[C@H](O)c1ccnc2ccc(OC)cc12` [QUININE] was 0.268 µg/mL.

As to `COc1cc(NC(C)CCCNC(=O)c2ccc(C(=O)NO)cc2)c2ncccc2c1` (centres undefined), the results for the 50% inhibitory concentration (IC50) with Plasmodium falciparum [2] and with Plasmodium falciparum [3] were 1200 nM and 600 nM, respectively.

In the case of `Cc1nc2ccccc2c(C)c1C(=O)NNC(=S)Nc1ccc([N+](=O)[O-])cc1`, in the test on Plasmodium falciparum [5], the half-maximal inhibitory concentration (IC50) amounted to 0.25 µg/mL (≈ 0.632 µM). On to `CC1=C(C(=O)Nc2ccc(Br)cn2)C(c2cn(-c3ccccc3)nc2-c2ccc([N+](=O)[O-])cc2)NC(=O)N1` (centres undefined), for which the half-inhibitory concentration (IC50) in the test with Plasmodium falciparum [6] came to 0.06 µg/mL (≈ 0.104 µM). Regarding `N=C(N=C(N)N)SCCNc1ccnc2cc(C(F)(F)F)ccc12`, the results for the IC50 with Plasmodium falciparum [7] and with Plasmodium falciparum [8] were 2950 nM and 1860 nM, respectively. Turning to `O=C1c2ccc(N3CCN(CCO)CC3)cc2C(=O)N1CCCCNc1ccnc2cc(Cl)ccc12`, in the test with Plasmodium falciparum [9], the IC50 was found to be 14 nM. The compound `COc1cc2c(cc1OC)CC(Nc1ccnc3cc(Cl)ccc13)C2` yielded a half-inhibitory concentration (IC50) with Hemozoin of 390 nM.

For `O=C1c2cccc(N3CCCCC3)c2C(=O)N1CCCCNc1ccnc2cc(Cl)ccc12`, the IC50 in the test on Plasmodium falciparum [9] worked out at 51 nM. For `CCCCNC(=S)NNC(=O)c1cc(-c2ccc(F)cc2)nc2c(Cl)cc(C(F)(F)F)cc12`, the concentration for half-maximal inhibition (IC50) with Plasmodium falciparum [4] turned out to be 0.28 µg/mL. Consider `O=C1c2ccc(N3CCCCC3)cc2C(=O)N1CCCCNc1ccnc2cc(Cl)ccc12`, for which, in the test with Plasmodium falciparum [9], the IC50 was 77 nM. Regarding `CCCCNc1c2ccc(Cl)cc2nc2ccc(OC)cc12`, the half-maximal inhibitory concentration (IC50) in the test with Plasmodium falciparum [10] is 26.4 nM.

In the case of `CC1=C(C(=O)Nc2ccccn2)C(c2cn(-c3ccccc3)nc2-c2ccc(F)cc2)NC(=O)N1` (centres undefined), the concentration for half-maximal inhibition (IC50) in the test with Plasmodium falciparum [6] was determined as 0.03 µg/mL (≈ 0.064 µM).

On to `O=C1c2cccc(N3CCCCC3)c2C(=O)N1CCCCCCNc1ccnc2cc(Cl)ccc12`, for which the IC50 in the test on Plasmodium falciparum [9] was found to be 75 nM.

Consider `Cc1nc2ccccc2c(C)c1C(=O)NNC(=S)Nc1ccc(Cl)c(Cl)c1`, for which the IC50 in the test on Plasmodium falciparum [5] was determined as 0.19 µg/mL (≈ 0.453 µM). `CC.Fc1ccc(Nc2nc(NCCCNc3ccnc4cc(Cl)ccc34)nc(Nc3ccc(F)cc3)n2)cc1`: the IC50 in the test on Plasmodium falciparum [11] was 51.5 µg/mL. In general, EC50 refers to the concentration at which the effect is half-maximal. On to `C[C@H]1[C@H](OC(=O)CCC(=O)Oc2ccc(Nc3ncnc4ccccc34)cc2)O[C@@H]2O[C@@]3(C)CC[C@H]4[C@H](C)CC[C@@H]1[C@@]24OO3`, for which the EC50 with Plasmodium falciparum [12] is 3.8 nM. On to `CCN(CC)CCCC(C)Nc1ccnc2cc(Cl)ccc12` (centres undefined) [CHLOROQUINE], for which the concentration for a half-maximal effect (EC50) in the test on Plasmodium falciparum [12] was 9.8 nM; in the test on Plasmodium falciparum [13], 12.7 nM; in the test with Plasmodium falciparum [14] it was 165 nM; in the test with Plasmodium falciparum [15] it was 303 nM. The IC50 in the test on Hemozoin is 180 nM.

On to `CC1=C(C(=O)Nc2ccc(Br)cn2)C(c2cn(-c3ccccc3)nc2-c2ccc(C)cc2)NC(=O)N1` (centres undefined), for which the IC50 with Plasmodium falciparum [6] was determined as 0.08 µg/mL (≈ 0.147 µM). As to `Cc1nc2ccccc2c(C)c1C(=O)NNC(N)=S`, in the test on Plasmodium falciparum [5], the half-inhibitory concentration (IC50) is 0.19 µg/mL (≈ 0.693 µM).

In the test with Hemozoin, `COc1ccc(OC)c2c1CC(Nc1ccnc3cc(Cl)ccc13)C2` returned an IC50 of 480 nM.

`N=C(N=C(N)N)SCCCNc1ccnc2cc(C(F)(F)F)ccc12`: the IC50 in the test with Plasmodium falciparum [7] was 3210 nM; with Plasmodium falciparum [8], 2850 nM.

Consider `O=C(NNC(=S)Nc1ccccc1)c1cc(-c2c(F)cccc2F)nc2ccc(C(F)(F)F)cc12`, for which, in the test on Plasmodium falciparum [4], the IC50 is 0.19 µg/mL. For the compound `Cc1nc2ccccc2c(C)c1C(=O)NNC(=S)Nc1ccc(F)cc1F`, in the test with Plasmodium falciparum [5], the IC50 worked out at 0.26 µg/mL (≈ 0.673 µM).

With `Fc1ccc(Nc2nc(NCCCNc3ccnc4cc(Cl)ccc34)nc(Nc3ccc(F)c(Cl)c3)n2)cc1Cl`, the IC50 in the test on Plasmodium falciparum [11] was 56 µg/mL (≈ 93 µM). Regarding `N=C(N=C(N)N)SCCCNc1ccnc2cc(Cl)ccc12`, the IC50 with Plasmodium falciparum [7] is 2310 nM; in the test with Plasmodium falciparum [8], 1560 nM. With `O=C1c2ccc(N3CCN(CCO)CC3)cc2C(=O)N1CCNc1ccnc2cc(Cl)ccc12`, the IC50 in the test on Plasmodium falciparum [9] worked out at 44 nM.
